According to patent US5360909A, “Phenoxyacetic acid compounds and medical preparations containing them” (Terumo Kabushiki Kaisha, priority 1992, dated 1994):

Tests used:
thromboxane A2 (TXA2) = assay: Antagonistic effect to TXA2: contraction of isolated guinea pig tracheal strips; assay type: cell-based, Hartley male guinea pigs; settings: Cavia porcellus, in vitro, TXA2 10^-7 M, Tyrode solution 37° C.
Protocol: (§1) The in vitro IC50 value of the antagonistic effect of the compounds of the present invention to TXA2 and LTD4 was obtained, using the following test system. Tracheal strips isolated from Hartley male guinea pigs (weight: 300 to 500 g) were suspended under a tension of 0.3 g in a Tyrode solution at 37° C. in an organ bath, to which a mixed gas of oxygen (95%)-carbon dioxide (5%) was introduced. After letting the above stabilize for about one hour, TXA2 (produced by Cayman Co.) or LTD4 (produced by Wako Pure Chemicals CO.) was added to the organ bath in a concentration-of 10^-7 M and 10^-8 M respectively, whereupon the contraction of the sections was measured as a standard. The strips were treated with various amounts of the compounds of Examples 1-8, whereupon the contraction of the tracheal preparations upon dosing with TXA2 or LTDS4 was again measured. From the values thus measured, the IC50 (Inhibition concentration) of the compound added was calculated. The results are shown in Table 1 below; the smaller the amount of the compound, the stronger its effectiveness.

leukotriene D4 (LTD4) = assay: Antagonistic effect to LTD4: contraction of isolated guinea pig tracheal strips; assay type: cell-based, Hartley male guinea pigs; settings: Cavia porcellus, in vitro, LTD4 10^-8 M, Tyrode solution 37° C.
Protocol: as §1

IC50 (thromboxane A2 (TXA2)) [nM] | IC50 (leukotriene D4 (LTD4)) [nM] | SMILES
8.2 | 160 | CCCc1c(OCCCC(=O)Nc2cc(CCNS(=O)(=O)c3ccc(Cl)cc3)ccc2OCC(=O)O)ccc(C(C)=O)c1O [Example 6, 4-[2-(4-chlorobenzenesulfonamido)ethyl]-2-[(4-acetyl-3-hydroxy-2-propyl)phenoxy-4-butamido]phenoxyacetic acid]
25 | 72 | O=C(O)COc1ccc(CCNS(=O)(=O)c2ccc(Cl)cc2)cc1NC(=S)Nc1cccc(OCc2ccc3ccccc3n2)c1 [Example 5, 4-[2-(4-chlorobenzenesulfonamido)ethyl]-2-{3-[3-(2-quinolinemethoxy)phenyl]thioureido}phenoxyacetic acid]
3.4 | 38 | O=C(O)COc1ccc(CCNS(=O)(=O)c2ccccc2)cc1NC(=O)c1cccc(OCc2ccc3ccccc3n2)c1 [Example 2, 4-[2-(benzenesulfonylamino)ethyl]-2-[3-(2-quinolinemethoxy)benzoylamino]phenoxyacetic acid]
40 | 260 | CCCc1c(OCCCCCC(=O)Nc2cc(CCNS(=O)(=O)c3ccc(Cl)cc3)ccc2OCC(=O)O)ccc(C(C)=O)c1O [Example 8, 4-[2-(4-chlorobenzenesulfonamido)ethyl]-2-[(4-acetyl-3-hydroxy-2-propyl)phenoxy-6-hexamido]phenoxyacetic acid]
4.2 | 65 | O=C(O)COc1ccc(CCNS(=O)(=O)c2ccc(Cl)cc2)cc1NC(=O)c1cccc(OCc2ccc3ccccc3n2)c1 [Example 1, 4-[2-(4-chlorobenzenesulfonamido)ethyl]-2-[3-(2-quinolinemethoxy)benzoylamino]phenoxyacetic acid]
19 | 76 | CCCc1c(OCCCCC(=O)Nc2cc(CCNS(=O)(=O)c3ccc(Cl)cc3)ccc2OCC(=O)O)ccc(C(C)=O)c1O [Example 7, 4-[2-(4-chlorobenzenesulfonamido)ethyl]-2-[(4-acetyl-3-hydroxy-2-propyl)phenoxy-5-pentamido]phenoxyacetic acid]
3.5 | 8300 | O=C(O)COc1ccc(CCNS(=O)(=O)c2ccc(Cl)cc2)c(OCc2ccc3ccccc3n2)c1 [Example 3, 4-[2-(4-chlorobenzenesulfonamido)ethyl]-3-(2-quinolinemethoxy)phenoxyacetic acid]
590 | 210 | O=C(O)COc1ccc(CCNS(=O)(=O)c2ccc(Cl)cc2)c(OCc2cccc(OCc3ccc4ccccc4n3)c2)c1 [Example 4, 4-[2-(4-chlorobenzenesulfonamido)ethyl]-3-(3-(2-quinolinemethoxy)benzyloxy]phenoxyacetic acid]
